According to ChEMBL document CHEMBL3991601, “The target landscape of clinical kinase drugs” (Science, 2017):
Active and inactive are the calls of the source.

Tests used:
Ephrin type-B receptor 4 = molecular target: T1, Ephrin type-B receptor 4 (Homo sapiens, UniProt P54760)
T1 sequence (P54760 whole entry): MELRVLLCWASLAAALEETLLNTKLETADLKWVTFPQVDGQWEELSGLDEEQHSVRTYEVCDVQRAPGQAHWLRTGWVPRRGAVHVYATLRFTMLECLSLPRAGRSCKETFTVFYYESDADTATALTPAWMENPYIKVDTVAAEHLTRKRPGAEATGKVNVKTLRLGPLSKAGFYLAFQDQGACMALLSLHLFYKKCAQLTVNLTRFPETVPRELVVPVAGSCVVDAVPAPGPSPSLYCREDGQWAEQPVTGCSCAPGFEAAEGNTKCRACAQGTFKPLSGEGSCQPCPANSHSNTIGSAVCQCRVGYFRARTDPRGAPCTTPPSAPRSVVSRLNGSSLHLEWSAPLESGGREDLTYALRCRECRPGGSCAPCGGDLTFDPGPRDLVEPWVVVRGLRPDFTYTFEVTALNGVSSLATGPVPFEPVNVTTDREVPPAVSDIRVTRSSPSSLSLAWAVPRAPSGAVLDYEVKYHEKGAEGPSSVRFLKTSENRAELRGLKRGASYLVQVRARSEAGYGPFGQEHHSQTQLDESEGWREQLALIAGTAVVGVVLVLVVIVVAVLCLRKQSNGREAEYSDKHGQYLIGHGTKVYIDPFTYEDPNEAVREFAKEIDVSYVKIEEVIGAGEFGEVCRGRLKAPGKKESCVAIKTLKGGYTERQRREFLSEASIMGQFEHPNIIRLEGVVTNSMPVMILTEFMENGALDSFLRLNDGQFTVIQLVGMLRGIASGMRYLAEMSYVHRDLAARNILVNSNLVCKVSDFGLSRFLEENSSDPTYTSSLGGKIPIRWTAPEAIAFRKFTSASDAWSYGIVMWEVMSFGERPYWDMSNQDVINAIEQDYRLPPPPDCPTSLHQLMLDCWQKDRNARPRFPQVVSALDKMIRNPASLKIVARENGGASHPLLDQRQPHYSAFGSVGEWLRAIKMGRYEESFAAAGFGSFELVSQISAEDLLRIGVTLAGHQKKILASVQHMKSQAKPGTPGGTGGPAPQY

[1] = molecular target: STE20-like serine/threonine-protein kinase (Homo sapiens, UniProt Q9H2G2)
STE20-like serine/threonine-protein kinase, sequence (Q9H2G2 whole entry): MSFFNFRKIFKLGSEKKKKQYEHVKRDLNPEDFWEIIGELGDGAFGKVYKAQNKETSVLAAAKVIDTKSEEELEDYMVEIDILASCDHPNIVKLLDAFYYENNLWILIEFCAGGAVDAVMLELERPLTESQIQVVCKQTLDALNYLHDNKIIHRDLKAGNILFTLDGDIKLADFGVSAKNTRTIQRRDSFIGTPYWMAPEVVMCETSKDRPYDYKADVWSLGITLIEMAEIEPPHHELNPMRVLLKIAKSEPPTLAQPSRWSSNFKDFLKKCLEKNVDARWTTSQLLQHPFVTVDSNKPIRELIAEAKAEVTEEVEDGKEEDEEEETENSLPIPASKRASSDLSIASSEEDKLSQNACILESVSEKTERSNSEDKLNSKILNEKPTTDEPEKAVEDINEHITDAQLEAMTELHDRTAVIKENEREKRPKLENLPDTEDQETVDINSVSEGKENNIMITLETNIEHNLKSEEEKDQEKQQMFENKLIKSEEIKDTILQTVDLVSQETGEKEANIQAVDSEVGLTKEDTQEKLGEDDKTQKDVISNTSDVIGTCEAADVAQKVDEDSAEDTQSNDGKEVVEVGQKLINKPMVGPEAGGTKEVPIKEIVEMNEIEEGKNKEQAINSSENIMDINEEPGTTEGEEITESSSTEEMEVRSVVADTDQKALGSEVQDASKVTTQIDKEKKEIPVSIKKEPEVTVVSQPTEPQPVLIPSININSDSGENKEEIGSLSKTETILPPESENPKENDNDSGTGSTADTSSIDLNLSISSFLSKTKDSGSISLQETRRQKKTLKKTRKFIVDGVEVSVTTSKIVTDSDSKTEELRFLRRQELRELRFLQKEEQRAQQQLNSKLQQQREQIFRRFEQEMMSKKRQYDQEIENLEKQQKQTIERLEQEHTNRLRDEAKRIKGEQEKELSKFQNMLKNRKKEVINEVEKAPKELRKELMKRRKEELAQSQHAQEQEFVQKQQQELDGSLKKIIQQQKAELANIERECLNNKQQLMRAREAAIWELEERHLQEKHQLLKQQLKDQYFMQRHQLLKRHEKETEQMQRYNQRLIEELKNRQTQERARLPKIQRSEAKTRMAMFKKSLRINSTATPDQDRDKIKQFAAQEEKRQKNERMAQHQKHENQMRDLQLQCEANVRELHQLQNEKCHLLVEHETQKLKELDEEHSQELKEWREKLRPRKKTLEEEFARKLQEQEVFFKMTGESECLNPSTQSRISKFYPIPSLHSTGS

[2] = molecular target: Mitogen-activated protein kinase 10 (Homo sapiens, UniProt P53779)
Mitogen-activated protein kinase 10, sequence (P53779 whole entry): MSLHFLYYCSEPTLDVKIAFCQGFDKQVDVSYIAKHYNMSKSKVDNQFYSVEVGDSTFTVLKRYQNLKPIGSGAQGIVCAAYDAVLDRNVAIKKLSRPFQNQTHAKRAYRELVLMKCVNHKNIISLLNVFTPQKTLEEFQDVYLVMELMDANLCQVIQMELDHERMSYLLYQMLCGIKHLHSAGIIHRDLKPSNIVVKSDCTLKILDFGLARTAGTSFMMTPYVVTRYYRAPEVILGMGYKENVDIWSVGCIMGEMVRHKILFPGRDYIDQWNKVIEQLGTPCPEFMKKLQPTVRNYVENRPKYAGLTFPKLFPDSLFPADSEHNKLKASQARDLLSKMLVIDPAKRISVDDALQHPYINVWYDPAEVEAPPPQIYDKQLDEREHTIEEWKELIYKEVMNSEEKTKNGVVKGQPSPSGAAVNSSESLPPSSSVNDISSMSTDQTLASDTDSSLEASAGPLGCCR

ADP/ATP translocase 3 = molecular target: T2, ADP/ATP translocase 3 (Homo sapiens, UniProt P12236)
T2 sequence (P12236 whole entry): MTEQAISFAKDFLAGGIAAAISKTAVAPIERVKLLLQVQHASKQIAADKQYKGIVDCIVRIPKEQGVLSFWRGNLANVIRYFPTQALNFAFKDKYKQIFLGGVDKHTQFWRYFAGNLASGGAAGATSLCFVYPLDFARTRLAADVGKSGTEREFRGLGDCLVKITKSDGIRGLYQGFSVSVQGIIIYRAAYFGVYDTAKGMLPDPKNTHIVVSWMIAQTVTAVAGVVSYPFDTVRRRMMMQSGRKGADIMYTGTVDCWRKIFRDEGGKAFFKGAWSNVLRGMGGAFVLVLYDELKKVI

Midasin = Midasin (Homo sapiens, UniProt Q9NU22)
[3] = molecular target: Serine/threonine-protein kinase N1 (Homo sapiens, UniProt Q16512)
Serine/threonine-protein kinase N1, sequence (Q16512 whole entry): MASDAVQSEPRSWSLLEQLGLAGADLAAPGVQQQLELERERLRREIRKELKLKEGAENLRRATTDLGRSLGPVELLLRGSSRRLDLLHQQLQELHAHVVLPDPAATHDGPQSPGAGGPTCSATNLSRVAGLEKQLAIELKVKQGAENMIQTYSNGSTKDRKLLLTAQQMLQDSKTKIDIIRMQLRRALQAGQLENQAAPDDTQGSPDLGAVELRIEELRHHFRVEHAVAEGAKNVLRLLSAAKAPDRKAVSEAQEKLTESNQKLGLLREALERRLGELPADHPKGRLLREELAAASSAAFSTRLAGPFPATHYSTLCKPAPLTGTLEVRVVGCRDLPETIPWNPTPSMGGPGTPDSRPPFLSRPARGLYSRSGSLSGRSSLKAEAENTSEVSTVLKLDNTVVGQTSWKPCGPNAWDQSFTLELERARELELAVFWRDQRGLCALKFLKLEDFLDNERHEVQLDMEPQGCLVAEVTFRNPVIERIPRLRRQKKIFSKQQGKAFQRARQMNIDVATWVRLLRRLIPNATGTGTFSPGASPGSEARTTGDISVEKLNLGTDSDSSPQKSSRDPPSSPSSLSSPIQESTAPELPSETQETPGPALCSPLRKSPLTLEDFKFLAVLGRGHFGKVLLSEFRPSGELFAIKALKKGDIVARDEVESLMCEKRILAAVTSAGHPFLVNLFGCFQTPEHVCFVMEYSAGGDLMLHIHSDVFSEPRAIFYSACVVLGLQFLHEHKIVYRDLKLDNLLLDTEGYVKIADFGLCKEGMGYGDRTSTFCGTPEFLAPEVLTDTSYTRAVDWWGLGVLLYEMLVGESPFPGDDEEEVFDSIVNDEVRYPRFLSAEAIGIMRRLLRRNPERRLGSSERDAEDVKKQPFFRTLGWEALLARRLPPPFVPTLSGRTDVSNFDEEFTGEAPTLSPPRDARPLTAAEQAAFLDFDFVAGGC

[4] = molecular target: T3, STE20-related kinase adapter protein alpha (Homo sapiens, UniProt Q7RTN6)
T3 sequence (Q7RTN6 whole entry): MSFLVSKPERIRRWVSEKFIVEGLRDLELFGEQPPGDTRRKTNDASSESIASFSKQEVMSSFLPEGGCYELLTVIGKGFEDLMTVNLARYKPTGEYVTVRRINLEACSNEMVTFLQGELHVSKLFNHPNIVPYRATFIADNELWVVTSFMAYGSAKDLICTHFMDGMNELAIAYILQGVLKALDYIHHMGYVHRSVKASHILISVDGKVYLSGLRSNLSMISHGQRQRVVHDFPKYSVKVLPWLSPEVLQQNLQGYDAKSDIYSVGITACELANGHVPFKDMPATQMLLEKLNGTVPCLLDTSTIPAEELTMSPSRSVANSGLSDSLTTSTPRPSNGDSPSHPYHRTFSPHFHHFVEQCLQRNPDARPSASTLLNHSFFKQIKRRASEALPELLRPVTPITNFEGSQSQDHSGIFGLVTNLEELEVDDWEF

[5] = molecular target: DNA topoisomerase 2-alpha (Homo sapiens, UniProt P11388)
DNA topoisomerase 2-alpha, sequence (P11388 whole entry): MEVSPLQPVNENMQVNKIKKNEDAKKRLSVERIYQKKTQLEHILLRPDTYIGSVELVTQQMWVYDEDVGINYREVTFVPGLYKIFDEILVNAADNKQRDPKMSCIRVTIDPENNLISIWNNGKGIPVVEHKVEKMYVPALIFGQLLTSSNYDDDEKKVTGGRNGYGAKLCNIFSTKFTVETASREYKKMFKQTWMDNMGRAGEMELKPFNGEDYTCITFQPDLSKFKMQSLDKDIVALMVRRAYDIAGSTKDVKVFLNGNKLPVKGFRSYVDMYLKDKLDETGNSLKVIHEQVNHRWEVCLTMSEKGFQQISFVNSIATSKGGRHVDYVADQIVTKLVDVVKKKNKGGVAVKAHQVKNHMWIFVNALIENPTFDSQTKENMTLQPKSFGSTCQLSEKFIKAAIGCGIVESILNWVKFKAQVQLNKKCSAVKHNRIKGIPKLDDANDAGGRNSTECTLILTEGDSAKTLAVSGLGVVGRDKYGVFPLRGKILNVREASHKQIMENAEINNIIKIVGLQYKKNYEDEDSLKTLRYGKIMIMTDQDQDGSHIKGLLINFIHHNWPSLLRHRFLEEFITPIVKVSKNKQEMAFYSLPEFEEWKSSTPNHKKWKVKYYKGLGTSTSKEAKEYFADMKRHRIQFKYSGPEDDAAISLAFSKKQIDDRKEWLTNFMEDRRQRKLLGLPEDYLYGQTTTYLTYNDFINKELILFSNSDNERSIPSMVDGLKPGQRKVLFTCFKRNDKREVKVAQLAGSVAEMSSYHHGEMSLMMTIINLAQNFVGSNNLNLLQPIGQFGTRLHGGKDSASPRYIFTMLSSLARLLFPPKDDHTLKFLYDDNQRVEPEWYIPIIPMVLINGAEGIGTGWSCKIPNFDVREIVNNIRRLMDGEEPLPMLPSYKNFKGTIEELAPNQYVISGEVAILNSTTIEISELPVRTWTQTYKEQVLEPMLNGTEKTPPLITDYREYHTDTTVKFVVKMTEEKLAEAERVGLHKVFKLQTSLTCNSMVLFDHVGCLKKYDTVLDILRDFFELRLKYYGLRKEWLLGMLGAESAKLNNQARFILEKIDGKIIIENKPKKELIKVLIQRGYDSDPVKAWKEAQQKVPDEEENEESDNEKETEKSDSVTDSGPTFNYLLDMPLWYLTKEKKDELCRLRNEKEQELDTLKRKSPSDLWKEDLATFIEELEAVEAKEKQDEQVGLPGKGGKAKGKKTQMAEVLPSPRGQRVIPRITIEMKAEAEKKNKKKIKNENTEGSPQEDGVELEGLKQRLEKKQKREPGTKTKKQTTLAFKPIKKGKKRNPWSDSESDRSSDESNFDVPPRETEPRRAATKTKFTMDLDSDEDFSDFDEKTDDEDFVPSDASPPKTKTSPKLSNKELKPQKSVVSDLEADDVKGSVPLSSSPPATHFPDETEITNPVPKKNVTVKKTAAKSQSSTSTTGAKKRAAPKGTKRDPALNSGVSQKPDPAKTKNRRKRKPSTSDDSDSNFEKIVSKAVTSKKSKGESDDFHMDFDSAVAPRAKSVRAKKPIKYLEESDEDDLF

[6] = molecular target: T4, Acyl-CoA dehydrogenase family member 11 (Homo sapiens, UniProt Q709F0)
T4 sequence (Q709F0 whole entry): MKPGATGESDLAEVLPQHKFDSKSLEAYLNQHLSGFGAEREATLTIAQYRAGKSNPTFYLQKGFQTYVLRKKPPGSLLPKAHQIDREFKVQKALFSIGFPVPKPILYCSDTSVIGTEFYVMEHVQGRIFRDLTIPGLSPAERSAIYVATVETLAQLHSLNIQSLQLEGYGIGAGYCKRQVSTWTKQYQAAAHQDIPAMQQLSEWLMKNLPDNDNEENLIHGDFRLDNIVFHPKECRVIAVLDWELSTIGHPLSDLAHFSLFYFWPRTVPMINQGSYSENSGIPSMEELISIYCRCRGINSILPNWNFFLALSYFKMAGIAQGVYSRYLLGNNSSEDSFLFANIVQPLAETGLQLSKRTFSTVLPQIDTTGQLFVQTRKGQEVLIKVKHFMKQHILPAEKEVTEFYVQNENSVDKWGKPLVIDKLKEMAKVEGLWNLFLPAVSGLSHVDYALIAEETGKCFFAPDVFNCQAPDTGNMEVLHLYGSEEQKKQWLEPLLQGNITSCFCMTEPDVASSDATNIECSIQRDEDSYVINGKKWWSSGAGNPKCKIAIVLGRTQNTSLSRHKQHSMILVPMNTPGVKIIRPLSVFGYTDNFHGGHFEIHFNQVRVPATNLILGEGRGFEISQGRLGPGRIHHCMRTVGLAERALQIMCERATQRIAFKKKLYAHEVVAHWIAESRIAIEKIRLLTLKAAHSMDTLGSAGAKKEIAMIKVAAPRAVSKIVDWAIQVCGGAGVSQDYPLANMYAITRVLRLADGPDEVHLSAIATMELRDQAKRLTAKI

[7] = molecular target: Maternal embryonic leucine zipper kinase (Homo sapiens, UniProt Q14680)
Maternal embryonic leucine zipper kinase, sequence (Q14680 whole entry): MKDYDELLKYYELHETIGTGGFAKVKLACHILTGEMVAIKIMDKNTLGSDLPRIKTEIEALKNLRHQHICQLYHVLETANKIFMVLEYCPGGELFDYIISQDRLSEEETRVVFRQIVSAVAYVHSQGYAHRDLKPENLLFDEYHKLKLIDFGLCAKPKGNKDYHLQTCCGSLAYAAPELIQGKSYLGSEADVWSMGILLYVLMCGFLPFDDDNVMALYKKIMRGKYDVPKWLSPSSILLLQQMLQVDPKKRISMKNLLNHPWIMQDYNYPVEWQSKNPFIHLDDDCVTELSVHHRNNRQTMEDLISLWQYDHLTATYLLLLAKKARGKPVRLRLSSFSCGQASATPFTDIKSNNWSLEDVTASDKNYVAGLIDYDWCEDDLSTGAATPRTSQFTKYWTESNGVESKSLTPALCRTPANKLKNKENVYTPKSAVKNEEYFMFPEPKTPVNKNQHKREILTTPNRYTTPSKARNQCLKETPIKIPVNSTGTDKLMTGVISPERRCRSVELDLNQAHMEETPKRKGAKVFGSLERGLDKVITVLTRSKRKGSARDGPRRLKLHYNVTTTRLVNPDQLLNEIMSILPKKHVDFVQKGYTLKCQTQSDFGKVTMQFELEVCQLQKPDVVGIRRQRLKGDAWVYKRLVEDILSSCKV
Also: in the data inactive means no Kd found up to 30 µM.

SMILES | Kd (Ephrin type-B receptor 4) | Kd [1] | Kd [2] | Kd (ADP/ATP translocase 3) | Kd (Midasin) | Kd [3] | Kd [4] | Kd [5] | Kd [6] | Kd [7]
CO[C@H]1C[C@@H]2CC[C@@H](C)[C@@](O)(O2)C(=O)C(=O)N2CCCC[C@H]2C(=O)O[C@H]([C@H](C)C[C@@H]2CC[C@@H](OC(=O)C(C)(CO)CO)[C@H](OC)C2)CC(=O)[C@H](C)/C=C(\C)[C@@H](O)[C@@H](OC)C(=O)[C@H](C)C[C@H](C)/C=C/C=C/C=C/1C [TEMSIROLIMUS] | > 30 µM (inactive) | > 30 µM (inactive) | > 30 µM (inactive) | > 30 µM (inactive) | > 30 µM (inactive) | > 30 µM (inactive) | > 30 µM (inactive) | > 30 µM (inactive) | > 30 µM (inactive) | > 30 µM (inactive)
COc1cc2c(Nc3ccc(Cl)c(Cl)c3F)ncnc2cc1OC[C@@H]1C[C@@H]2CN(C)C[C@@H]2C1 [TESEVATINIB] | 0.037 µM (active) | 3.42 µM (active) | > 30 µM (inactive) | > 30 µM (inactive) | > 30 µM (inactive) | > 30 µM (inactive) | > 30 µM (inactive) | > 30 µM (inactive) | > 30 µM (inactive) | > 30 µM (inactive)
O=C(Cc1ccc(-c2ccc(OCCN3CCOCC3)cc2)cn1)NCc1ccccc1 [TIRBANIBULIN] | > 30 µM (inactive) | > 30 µM (inactive) | > 30 µM (inactive) | > 30 µM (inactive) | > 30 µM (inactive) | > 30 µM (inactive) | > 30 µM (inactive) | > 30 µM (inactive) | > 30 µM (inactive) | > 30 µM (inactive)
O=C1NC(=O)[C@@H](c2cn3c4c(cccc24)CCC3)[C@@H]1c1c[nH]c2ccccc12 [TIVANTINIB] | > 30 µM (inactive) | > 30 µM (inactive) | > 30 µM (inactive) | > 30 µM (inactive) | > 30 µM (inactive) | > 30 µM (inactive) | > 30 µM (inactive) | > 30 µM (inactive) | > 30 µM (inactive) | > 30 µM (inactive)
Cc1cc(Nc2ncnc3ccc(NC4=NC(C)(C)CO4)cc23)ccc1Oc1ccn2ncnc2c1 [TUCATINIB] | > 30 µM (inactive) | > 30 µM (inactive) | > 30 µM (inactive) | > 30 µM (inactive) | > 30 µM (inactive) | > 30 µM (inactive) | > 30 µM (inactive) | > 30 µM (inactive) | > 30 µM (inactive) | > 30 µM (inactive)

Other lines, results leading:

Kd (Ephrin type-B receptor 4) | Kd [1] | Kd [2] | Kd (ADP/ATP translocase 3) | Kd (Midasin) | Kd [3] | Kd [4] | Kd [5] | Kd [6] | Kd [7] | SMILES
0.292 µM (active) | 0.138 µM (active) | > 30 µM (inactive) | > 30 µM (inactive) | > 30 µM (inactive) | 0.011 µM (active) | > 30 µM (inactive) | > 30 µM (inactive) | > 30 µM (inactive) | > 30 µM (inactive) | CC(C)c1cc(CNc2nc(Nc3cc(C4CC4)[nH]n3)cc(N3CCN(C)CC3)n2)on1 [XL-228]
> 30 µM (inactive) | > 30 µM (inactive) | > 30 µM (inactive) | > 30 µM (inactive) | > 30 µM (inactive) | 0.253 µM (active) | > 30 µM (inactive) | > 30 µM (inactive) | > 30 µM (inactive) | > 30 µM (inactive) | C[C@@H](N)c1ccc(C(=O)Nc2ccnc3[nH]ccc23)cc1 [Y-39983]
> 30 µM (inactive) | 6.37 µM (active) | > 30 µM (inactive) | > 30 µM (inactive) | > 30 µM (inactive) | 1.69 µM (active) | > 30 µM (inactive) | > 30 µM (inactive) | > 30 µM (inactive) | > 30 µM (inactive) | CN1C/C=C/CCOc2cccc(c2)-c2ccnc(n2)Nc2cccc(c2)C1 [ZOTIRACICLIB]
